Source: ChEMBL document CHEMBL3217710, “Antimalarial peroxides: advances in drug discovery and design” (Medchemcomm, 2012)

Columns and labels:
Plasmodium falciparum [1] = assay: Antimalarial activity against chloroquine-resistant Plasmodium falciparum K1; format: functional, organism-based
[2] = Half life in simulated stomach acid; format: ADME
Plasmodium berghei [3] = assay: Antimalarial activity against chloroquine-sensitive Plasmodium berghei infected in mouse; format: functional
Plasmodium yoelii = assay: Antimalarial activity against chloroquine-resistant Plasmodium yoelii infected in po dosed mouse; format: functional
Plasmodium berghei [4] = assay: Antimalarial activity against Plasmodium berghei infected in sc dosed mouse; format: functional, organism-based
Plasmodium falciparum [5] = assay: Antimalarial activity against chloroquine-resistant Plasmodium falciparum; format: functional, organism-based
Plasmodium falciparum [6] = assay: Antimalarial activity against chloroquine-sensitive Plasmodium falciparum; format: functional, organism-based
Plasmodium vinckei [7] = assay: Antimalarial activity against Plasmodium vinckei infected in ip dosed mouse assessed as decrease in parasitemia by peters four day suppressive test; format: functional; conditions: 96 h
Plasmodium vinckei [8] = assay: Antimalarial activity against Plasmodium vinckei infected in po dosed mouse assessed as decrease in parasitemia by peters four day suppressive test; format: functional; conditions: 96 h
Plasmodium falciparum [9] = assay: Antimalarial activity against chloroquine-sensitive Plasmodium falciparum FCR-3; format: functional; conditions: FCR-3/Gambia
Plasmodium falciparum [10] = assay: Antimalarial activity against Plasmodium falciparum; format: functional, organism-based
[11] = Half life of the compound in HCl solution at pH 1; format: physicochemical
[12] = Oral bioavailability in rat at 50 mg/kg; format: ADME, organism-based; conditions: in vivo
[13] = Octanol-water partition coefficient, log P of the compound at pH 7.4; format: physicochemical
Plasmodium falciparum [14] = assay: Antimalarial activity against chloroquine-sensitive Plasmodium falciparum at 1.4 nM relative to control; format: functional
Plasmodium falciparum [15] = assay: Antimalarial activity against chloroquine-sensitive Plasmodium falciparum at 5.2 nM relative to control; format: functional
[16] = Therapeutic index, ratio of compound activity in mouse assessed as body weight gain to compound activity against Plasmodium berghei infected in mouse; format: organism-based; conditions: in vivo, read-out: TI
Plasmodium falciparum [17] = assay: Antimalarial activity against chloroquine-sensitive Plasmodium falciparum at 4.6 nM relative to control; format: functional
Plasmodium falciparum [18] = assay: Antimalarial activity against multi-drug resistant Plasmodium falciparum; format: functional, organism-based
[19] = Half life in human infected with Plasmodium; conditions: in vivo
Plasmodium falciparum [20] = assay: Antimalarial activity against chloroquine-sensitive Plasmodium falciparum NF54; format: functional, organism-based
[21] = Drug degradation at 40 degC after 1 month; format: physicochemical; conditions: read-out: Drug degradation
[22] = Drug degradation at 40 degC after 3 months; format: physicochemical; conditions: read-out: Drug degradation

Fc1ccc(C2=C[C@H]3OC4(CCCC4)OO[C@@]3(c3ccc(F)cc3)C2)cc1
IC50 (Plasmodium falciparum [1]): < 5 nM

C[C@H]1[C@@H](CCc2ccc(C(=O)O)cc2)O[C@@H]2O[C@]3(C)CC[C@H]4[C@H](C)CC[C@@H]1[C@@]24OO3
half-life [2]: 0.546 days

C[C@H]1[C@@H](Oc2ccc(C(F)(F)F)cc2)O[C@@H]2O[C@]3(C)CC[C@H]4[C@H](C)CC[C@@H]1[C@@]24OO3
ED50 (Plasmodium berghei [3]): 2.1 mg/kg

C[C@H]1[C@@H](CCN2CCN(c3cccc(C(F)(F)F)c3)CC2)O[C@@H]2O[C@]3(C)CC[C@H]4[C@H](C)CC[C@@H]1[C@@]24OO3
ED50 (Plasmodium yoelii): 3.1 mg/kg

C[C@H]1[C@@H](CCN2CCN(c3ccc(F)cc3)CC2)O[C@@H]2O[C@]3(C)CC[C@H]4[C@H](C)CC[C@@H]1[C@@]24OO3
ED50 (Plasmodium yoelii): < 10 mg/kg

C[C@H]1[C@@H](CCN2CCN(c3ccccc3)CC2)O[C@@H]2O[C@]3(C)CC[C@H]4[C@H](C)CC[C@@H]1[C@@]24OO3
ED50 (Plasmodium yoelii): < 10 mg/kg

C[C@H]1[C@@H](CCN2CCN(c3ccc([N+](=O)[O-])cc3)CC2)O[C@@H]2O[C@]3(C)CC[C@H]4[C@H](C)CC[C@@H]1[C@@]24OO3
ED50 (Plasmodium yoelii): < 10 mg/kg

COC1(c2ccc(S(C)(=O)=O)cc2)C=CC2(CCCCCC2)OO1 (stereo not drawn)
IC50 (Plasmodium berghei [4]): 31 nM

CC(C)C1=C[C@H]2OC3(CCC(NCCNc4ccnc5cc(Cl)ccc45)CC3)OO[C@@]2(C)CC1.O=C(O)CC(O)(CC(=O)O)C(=O)O (stereo partly drawn)
IC50 (Plasmodium falciparum [5]): 5 nM | IC50 (Plasmodium falciparum [6]): 4 nM | ED50 (Plasmodium vinckei [7]): 5 mg/kg | ED50 (Plasmodium vinckei [8]): 18 mg/kg

C1CCCCCC2(CCCCC1)OOCCCOO2
EC50 (Plasmodium falciparum [9]): 2.5 nM

C[C@@H]1CC[C@H]2[C@@H](C)C(Oc3ccccc3)O[C@@H]3O[C@@]4(C)CC[C@@H]1[C@]32OO4 (stereo partly drawn)
IC50 (Plasmodium falciparum [5]): 5.3 nM | IC50 (Plasmodium falciparum [6]): 3.9 nM

C[C@@H]1CC[C@H]2[C@@H](C)[C@](O)(C(F)(F)F)O[C@@H]3O[C@@]4(C)CC[C@@H]1[C@]32OO4
IC50 (Plasmodium falciparum [10]): 9.4 nM | half-life [11]: 31.7 days | bioavailability [12]: 28%

CO[C@@]1(C(F)(F)F)O[C@@H]2O[C@@]3(C)CC[C@H]4[C@H](C)CC[C@@H]([C@H]1C)[C@@]24OO3
IC50 (Plasmodium falciparum [10]): 0.8 nM | half-life [11]: 27.5 days

CCO[C@@]1(C(F)(F)F)O[C@@H]2O[C@@]3(C)CC[C@H]4[C@H](C)CC[C@@H]([C@H]1C)[C@@]24OO3
IC50 (Plasmodium falciparum [10]): 3.3 nM | half-life [11]: 20.8 days

C[C@@H]1CC[C@H]2[C@@H](C)[C@](OC(=O)CCC(=O)O)(C(F)(F)F)O[C@@H]3O[C@@]4(C)CC[C@@H]1[C@]32OO4
IC50 (Plasmodium falciparum [10]): 4.1 nM

C[C@H]1[C@H](N2CCOCC2)O[C@@H]2O[C@@]3(C)CC[C@H]4[C@H](C)CC[C@@H]1[C@@]24OO3
logD [13]: 3.05

C[C@H]1[C@H](N2CC[S+]([O-])CC2)O[C@@H]2O[C@@]3(C)CC[C@H]4[C@H](C)CC[C@@H]1[C@@]24OO3
logD [13]: 2.63

C[C@H]1[C@H](c2ccco2)O[C@@H]2O[C@@]3(C)CC[C@H]4[C@H](C)CC[C@@H]1[C@@]24OO3
inhibition at 0.0014 µM (Plasmodium falciparum [14]): 50%

Cc1ccc([C@@H]2O[C@@H]3O[C@@]4(C)CC[C@H]5[C@H](C)CC[C@@H]([C@H]2C)[C@@]35OO4)o1
inhibition at 0.0052 µM (Plasmodium falciparum [15]): 50%

C[C@H]1[C@@H](CC(C[C@H]2O[C@@H]3O[C@@]4(C)CC[C@H]5[C@H](C)CC[C@@H]([C@H]2C)[C@@]35OO4)C(=O)O)O[C@@H]2O[C@@]3(C)CC[C@H]4[C@H](C)CC[C@@H]1[C@@]24OO3 (stereo partly drawn)
selectivity ratio [16]: 167

CC(=O)OC1(C)CCC2CC1OO[C@]2(/C=C\c1ccc(F)cc1)c1ccccc1 (stereo partly drawn)
IC50 (Plasmodium falciparum [1]): 29 nM

CC(=O)OC1(C)CCC2CC1OO[C@]2(/C=C\c1ccc(Cl)cc1)c1ccccc1 (stereo partly drawn)
IC50 (Plasmodium falciparum [1]): 23 nM

CC1CCC2CC1OO[C@]2(C)/C=C/[C@H](O)C(C)(C)O (stereo partly drawn)
IC50 (Plasmodium falciparum [1]): 115 nM

CC1CCC2CC1OO[C@]2(C)/C=C/[C@@H](O)C(C)(C)O (stereo partly drawn)
IC50 (Plasmodium falciparum [1]): 56 nM

Cc1ccc(C2=C[C@H]3OC4(CCCC4)OO[C@@]3(c3ccc(C)cc3)C2)cc1
IC50 (Plasmodium falciparum [1]): < 5 nM

Fc1ccc(C2=C[C@H]3OC4(CCOCC4)OO[C@@]3(c3ccc(F)cc3)C2)cc1
IC50 (Plasmodium falciparum [1]): < 5 nM

C=C(C)[C@@H]1OO[C@]2(O[C@H]1C1CC1)[C@H]1CC3C[C@@H](C1)C[C@H]2C3
IC50 (Plasmodium falciparum [1]): < 5 nM

C=C(C)[C@@H]1OO[C@]2(O[C@H]1CCC)[C@H]1CC3C[C@@H](C1)C[C@H]2C3
IC50 (Plasmodium falciparum [1]): < 5 nM

OCCCCCCC1COOC2(CCCCCCCCCCC2)OOC1
EC50 (Plasmodium falciparum [9]): 2.3 nM

Clc1ccc2c(NCCNC3CCC4(CC3)OOC3(c5ccccc5)CC(c5ccccc5)=CC3O4)ccnc2c1 (stereo not drawn)
IC50 (Plasmodium falciparum [5]): 20 nM | IC50 (Plasmodium falciparum [6]): 7 nM

CC1(C)COC2(CCC(NC3CCC(Nc4ccnc5cc(Cl)ccc45)CC3)CC2)OO1 (stereo not drawn)
IC50 (Plasmodium falciparum [5]): 7 nM | IC50 (Plasmodium falciparum [6]): 7 nM

Cc1ccc(OC2O[C@@H]3O[C@@]4(C)CC[C@H]5[C@H](C)CC[C@@H]([C@H]2C)[C@@]35OO4)cc1 (stereo partly drawn)
IC50 (Plasmodium falciparum [5]): 5.3 nM | IC50 (Plasmodium falciparum [6]): 3.9 nM

C[C@@H]1CC[C@H]2[C@@H](C)C(Oc3ccc(C(F)(F)F)cc3)O[C@@H]3O[C@@]4(C)CC[C@@H]1[C@]32OO4 (stereo partly drawn)
IC50 (Plasmodium falciparum [5]): 5.3 nM | IC50 (Plasmodium falciparum [6]): 3.9 nM

COc1ccc(OC2O[C@@H]3O[C@@]4(C)CC[C@H]5[C@H](C)CC[C@@H]([C@H]2C)[C@@]35OO4)cc1 (stereo partly drawn)
IC50 (Plasmodium falciparum [5]): 5.3 nM | IC50 (Plasmodium falciparum [6]): 3.9 nM

C[C@@H]1CC[C@H]2[C@@H](C)C(Oc3ccc(F)cc3)O[C@@H]3O[C@@]4(C)CC[C@@H]1[C@]32OO4 (stereo partly drawn)
IC50 (Plasmodium falciparum [5]): 5.3 nM | IC50 (Plasmodium falciparum [6]): 3.9 nM

C[C@@H]1CC[C@H]2[C@@H](C)C(Oc3ccc(Cl)cc3)O[C@@H]3O[C@@]4(C)CC[C@@H]1[C@]32OO4 (stereo partly drawn)
IC50 (Plasmodium falciparum [5]): 5.3 nM | IC50 (Plasmodium falciparum [6]): 3.9 nM

C[C@@H]1CC[C@H]2[C@@H](C)C(Oc3ccc(-c4cccc5ccccc45)cc3)O[C@@H]3O[C@@]4(C)CC[C@@H]1[C@]32OO4 (stereo partly drawn)
IC50 (Plasmodium falciparum [5]): 5.3 nM | IC50 (Plasmodium falciparum [6]): 3.9 nM

C[C@H]1[C@H](c2cccn2C)O[C@@H]2O[C@@]3(C)CC[C@H]4[C@H](C)CC[C@@H]1[C@@]24OO3
inhibition at 0.0046 µM (Plasmodium falciparum [17]): 50%

C1CCCCCC2(CCCCC1)OOCCCCCOO2
EC50 (Plasmodium falciparum [9]): 1 nM

CO[C@H]1O[C@@H]2O[C@@]3(C)CC[C@H]4[C@H](C)CC[C@@H]([C@H]1C)[C@@]24OO3 [ARTEMETHER]
logD [13]: 4 | ED50 (Plasmodium yoelii): 6 mg/kg

C[C@H]1[C@H](N2CCS(=O)(=O)CC2)O[C@@H]2O[C@@]3(C)CC[C@H]4[C@H](C)CC[C@@H]1[C@@]24OO3 [ARTEMIFONE]
logD [13]: 2.49 | ED90 (Plasmodium berghei [4]; sc): 1.5 mg/kg | EC50 (Plasmodium falciparum [18]): 0.14 nM

C[C@H]1[C@H](N2CCSCC2)O[C@@H]2O[C@@]3(C)CC[C@H]4[C@H](C)CC[C@@H]1[C@@]24OO3 [ARTEMISIDE]
logD [13]: 4.97

C[C@@H]1CC[C@H]2[C@@H](C)C(=O)O[C@@H]3O[C@@]4(C)CC[C@@H]1[C@]32OO4 [ARTEMISININ]
half-life [19]: 0.0833 days | IC50 (Plasmodium falciparum [20]): 8.9 nM | IC50 (Plasmodium falciparum [1]): 2.8 nM

C[C@H]1[C@@H](O)O[C@@H]2O[C@@]3(C)CC[C@H]4[C@H](C)CC[C@@H]1[C@@]24OO3 [ARTENIMOL]
degraded at 730.5 h [21]: 2% | degraded at 2191.5 h [22]: 2.9%

C[C@H]1[C@H](OC(=O)CCC(=O)O)O[C@@H]2O[C@@]3(C)CC[C@H]4[C@H](C)CC[C@@H]1[C@@]24OO3 [SODIUM ARESUNATE]
EC50 (Plasmodium falciparum [18]): 0.73 nM

C[C@H]1[C@@H](OCc2ccc(C(=O)[O-])cc2)O[C@@H]2O[C@]3(C)CC[C@H]4[C@H](C)CC[C@@H]1[C@@]24OO3.[Na+] [SODIUMARTELINATE]
half-life [2]: 10.8 days
